Common to all, as to assay type: cell-based
One data set addresses T1, PPARδ (Homo sapiens, UniProt Q03181).
T1 sequence (Q03181 1-441): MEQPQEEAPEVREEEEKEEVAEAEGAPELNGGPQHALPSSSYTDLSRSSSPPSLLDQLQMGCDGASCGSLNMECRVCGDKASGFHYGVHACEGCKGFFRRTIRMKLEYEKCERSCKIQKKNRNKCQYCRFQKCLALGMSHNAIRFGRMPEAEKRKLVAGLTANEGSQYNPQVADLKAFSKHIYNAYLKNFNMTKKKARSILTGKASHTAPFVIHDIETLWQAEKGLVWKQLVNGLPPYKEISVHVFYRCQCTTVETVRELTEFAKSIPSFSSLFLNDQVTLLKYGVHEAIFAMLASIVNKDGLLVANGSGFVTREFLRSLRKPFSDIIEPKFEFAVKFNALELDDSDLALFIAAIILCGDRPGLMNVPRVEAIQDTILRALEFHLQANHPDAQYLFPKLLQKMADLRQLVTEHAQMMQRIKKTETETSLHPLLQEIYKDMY
Description: Transfection assay (luciferase reporter) in CV-1 cells, PPARδ. Also noted: full-length PPARs plasmid DNA; expressed in transfected cells; host or cells: CV-1 cells. The conditions noted are these: full-length PPAR plasmid, luciferase normalized with β-galactosidase. The protocol:
(§1) The compounds prepared in Examples were tested for PPARδ activity by a transfection assay. In addition, the compounds were tested for selectivity for PPARα and PPARγ, the subtypes of PPARs, and also tested for toxicity by a MTT assay.
(§2) A transfection assay was performed using CV-1 cells. The culture of the cells was performed using a DMEM medium (10% FBS, DBS (delipidated) and 1% penicillin/streptomycin) on a 96-well plate in a 5% carbon dioxide-containing incubator at 37° C. […] Specifically, CV-1 cells were inoculated onto a 96-well plate at a concentration of 5,000 cells/well, and after 24 hours, the cells were transfected. In the cell transfection, full-length PPARs plasmid DNA, reporter DNA that has luciferase activity and thus allows the identification of PPARs, and β-galactosidase DNA that provides the information of transfection efficiency, were used as transfection reagents. Each of the compounds developed in the present invention was dissolved in dimethylsulfoxide (DMSO) and transfected into the cells at various concentrations using media. The cells were cultured in an incubator for 24 and then lysed with lysis buffer. The lysed cells were measured for luciferase and β-galactosidase activities using a luminometer and a microplate reader. The measured luciferase values were normalized with the β-galactosidase values and graphed. From the graph, EC50 values were determined.

A short description of a further data set: MTT assay, cytotoxicity. The conditions noted are these: African green monkey, CV-1 cells, read-out: LC50 Cytotoxicity. The protocol: The compounds of Examples 47-97 according to the present invention were tested for cytotoxicity using a MTT assay. MTT is a water-soluble yellow substance, but if it is introduced into living cells, it will be degenerated into a water-insoluble purple crystal due to dehydrogenase contained in mitochondria. If this substance is dissolved in dimethylsulfoxide and then measured for absorbance at 550 nm, cytotoxicity can be assayed. The test method is as follows.
CV-1 cells were first inoculated onto a 96-well plate at a concentration of 5,000 cells/well. The inoculated cells were cultured in a 5% carbon dioxide-containing humidified incubator at 37° C. for 24 hours, and then treated with the inventive compounds at various concentrations. After 24 hours of culture, a MTT reagent was added to the cultured cells. After 15 minutes of culture, the resulting purple crystal was dissolved in dimethylsulfoxide and then measured for absorbance using a microplate reader. From the measured absorbance, cytotoxicity was assayed.

Another data set deals with T2, PPARγ (Homo sapiens, UniProt P37231).
T2 construct: full-length PPARs plasmid DNA; expressed in transfected cells; host or cells: CV-1 cells
T2 sequence (P37231 1-505): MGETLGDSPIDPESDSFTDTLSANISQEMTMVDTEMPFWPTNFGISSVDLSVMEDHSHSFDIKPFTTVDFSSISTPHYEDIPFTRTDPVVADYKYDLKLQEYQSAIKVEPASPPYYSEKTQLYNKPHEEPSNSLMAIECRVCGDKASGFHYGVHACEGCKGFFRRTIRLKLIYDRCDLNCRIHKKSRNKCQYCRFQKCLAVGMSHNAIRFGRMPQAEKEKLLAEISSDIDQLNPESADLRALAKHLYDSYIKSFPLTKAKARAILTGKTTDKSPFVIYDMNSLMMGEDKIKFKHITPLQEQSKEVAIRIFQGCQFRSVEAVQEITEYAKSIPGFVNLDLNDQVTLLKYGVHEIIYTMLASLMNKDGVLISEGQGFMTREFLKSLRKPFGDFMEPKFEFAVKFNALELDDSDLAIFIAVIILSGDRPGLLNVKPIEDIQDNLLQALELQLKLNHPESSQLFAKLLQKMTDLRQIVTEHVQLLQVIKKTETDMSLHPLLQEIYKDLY
Description: Transfection assay (luciferase reporter) in CV-1 cells, PPARγ. The conditions noted are these: full-length PPAR plasmid, luciferase normalized with β-galactosidase. The protocol:
as §1, §2

The next data set has as its target T3, PPARα (Homo sapiens, UniProt Q07869).
T3 construct: full-length PPARs plasmid DNA; expressed in transfected cells; host or cells: CV-1 cells
T3 sequence (Q07869 1-468): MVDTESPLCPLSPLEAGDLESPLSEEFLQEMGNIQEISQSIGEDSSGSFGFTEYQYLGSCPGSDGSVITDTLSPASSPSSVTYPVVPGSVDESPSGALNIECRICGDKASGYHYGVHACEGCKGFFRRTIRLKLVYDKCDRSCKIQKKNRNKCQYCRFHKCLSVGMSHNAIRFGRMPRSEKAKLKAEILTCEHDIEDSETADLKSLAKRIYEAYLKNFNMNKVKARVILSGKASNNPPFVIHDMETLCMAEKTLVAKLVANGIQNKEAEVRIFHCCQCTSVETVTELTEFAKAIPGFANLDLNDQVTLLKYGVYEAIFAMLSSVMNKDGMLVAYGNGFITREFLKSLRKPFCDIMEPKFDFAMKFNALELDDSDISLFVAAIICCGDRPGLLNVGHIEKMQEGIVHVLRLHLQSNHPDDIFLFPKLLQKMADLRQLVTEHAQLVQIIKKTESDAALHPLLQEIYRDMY
In words: Transfection assay (luciferase reporter) in CV-1 cells, PPARα. The conditions noted are these: full-length PPAR plasmid, luciferase normalized with β-galactosidase. The protocol: as §1
A transfection assay was performed using CV-1 cells. The culture of the cells was performed using a DMEM medium (10% FBS, DBS (delipidated) and 1% penicillin/streptomycin) on a 96-well plate in a 5% carbon dioxide-containing incubator at 37° C. The test was performed in four steps consisting of cell inoculation, transfection, treatment of the compounds, and analysis of results. Specifically, CV-1 cells were inoculated onto a 96-well plate at a concentration of 5,000 cells/well, and after 24 hours, the cells were transfected. In the cell transfection, full-length PPARs plasmid DNA, reporter DNA that has luciferase activity and thus allows the identification of PPARs, and β-galactosidase DNA that provides the information of transfection efficiency, were used as transfection reagents. Each of the compounds developed in the present invention was dissolved in dimethylsulfoxide (DMSO) and transfected into the cells at various concentrations using media. The cells were cultured in an incubator for 24 and then lysed with lysis buffer. The lysed cells were measured for luciferase and β-galactosidase activities using a luminometer and a microplate reader. The measured luciferase values were normalized with the β-galactosidase values and graphed. From the graph, EC50 values were determined.

This note sets out measurements from US20090054493A1, “THIAZOLE DERIVATIVES AS PPAR DELTA LIGANDS AND THEIR MANUFACTURING PROCESS” (priority 2005, published 2009).

One may read the EC50 as the midpoint of the concentration-response curve. Higher therefore signals weaker potency.

Some results are limits rather than exact numbers.

On to `Cc1cc(SC(Cc2ccc(C(F)(F)F)cc2)c2sc(-c3ccc(C(F)(F)F)cc3)nc2C)ccc1OCC(=O)O` (centres unmarked) [Example 78, 2-[4-[2-[4-(trifluoromethyl)phenyl]-1-[2-[4-(trifluoromethyl)phenyl]-4-methylthiazol-5-yl]ethylthio]-2-methylphenoxy]acetic acid], for which the EC50 at PPARδ was 13.3 nM. Moreover, in “MTT assay, cytotoxicity”, the CC50 at 24 h is greater than 100000 nM. The “EC50 PPARγ” value at PPARγ is on record as “ia”. At PPARα, the “EC50 PPARα” value was “ia”.
In turn, `COc1cc(CC(Sc2ccc(OCC(=O)O)c(C)c2)c2sc(-c3ccc(C(F)(F)F)cc3)nc2C)cc(OC)c1` (centres unmarked) [Example 79, 2-[4-[1-[2-[4-(trifluoromethyl)phenyl]-4-methylthiazol-5-yl]-2-(3,5-dimethoxyphenyl)ethylthio]-2-methylphenoxy]acetic acid] had an EC50 at PPARδ of 46.4 nM. For the same compound, in the data set “MTT assay, cytotoxicity”, the CC50 at 24 h is greater than 100000 nM. Also, on PPARγ, the “EC50 PPARγ” value is “ia”. The “EC50 PPARα” value at PPARα is listed as “ia”.
For the compound `Cc1cc(SC(Cc2c(F)cccc2F)c2sc(-c3ccc(C(F)(F)F)cc3)nc2C)ccc1OCC(=O)O` (centres unmarked) [Example 83, 2-[4-[1-[2-[4-(trifluoromethyl)phenyl]-4-methylthiazol-5-yl]-2-(2,6-difluorophenyl)ethylthio]-2-methylphenoxy]acetic acid], the figures for the EC50 at PPARδ, at PPARγ and on PPARα were 2.6 nM, greater than 10000 nM and greater than 100000 nM, respectively. Also, the CC50 at 24 h in “MTT assay, cytotoxicity” was greater than 100000 nM.
`Cc1cc(SC(Cc2c(Cl)cccc2Cl)c2sc(-c3ccc(C(F)(F)F)cc3)nc2C)ccc1OCC(=O)O` (centres unmarked) [Example 84, 2-[4-[2-(2,6-dichlorophenyl)-1-[2-[4-(trifluoromethyl)phenyl]-4-methylthiazol-5-yl]ethylthio]-2-methylphenoxy]acetic acid] gave an EC50 on PPARδ of 2.1 nM. In “MTT assay, cytotoxicity”, the CC50 at 24 h is greater than 100000 nM. Also, on PPARγ, the “EC50 PPARγ” value is recorded as “ia”. Further, the “EC50 PPARα” value on PPARα is given as “ia”.
`Cc1cc(SC(Cc2ccc(F)cc2F)c2sc(-c3ccc(C(F)(F)F)cc3)nc2C)ccc1OCC(=O)O` (centres unmarked) [Example 85, 2-[4-[1-[2-[4-(trifluoromethyl)phenyl]-4-methylthiazol-5-yl]-2-(2,4-difluorophenyl)ethylthio]-2-methylphenoxy]acetic acid]: the response at PPARδ was half-maximal at 3.4 nM (EC50). The CC50 at 24 h in the data set “MTT assay, cytotoxicity” is greater than 100000 nM. Moreover, the “EC50 PPARγ” value at PPARγ is on record as “ia”. The “EC50 PPARα” value at PPARα was “ia”.
At PPARδ, `Cc1cc(SC(Cc2cc(F)ccc2Cl)c2sc(-c3ccc(C(F)(F)F)cc3)nc2C)ccc1OCC(=O)O` (centres unmarked) [Example 86, 2-[4-[2-(2-chloro-5-fluorophenyl)-1-[2-[4-(trifluoromethyl)phenyl]-4-methylthiazol-5-yl]ethylthio]-2-methylphenoxy]acetic acid] displayed a concentration for a half-maximal effect (EC50) of 8.7 nM. Also, the CC50 at 24 h in the data set “MTT assay, cytotoxicity” is greater than 100000 nM. In addition, on PPARγ, the “EC50 PPARγ” value is “ia”. The “EC50 PPARα” value at PPARα is reported as “ia”.
Consider `Cc1cc(SC(Cc2c(F)cccc2Cl)c2sc(-c3ccc(C(F)(F)F)c(F)c3)nc2C)ccc1OCC(=O)O` (centres unmarked) [Example 91, 2-[4-[2-(2-chloro-6-fluorophenyl)-1-[2-[3-fluoro-4-(trifluoromethyl)phenyl]-4-methylthiazol-5-yl]ethylthio]-2-methylphenoxy]acetic acid], for which the response at PPARδ was half-maximal at 3.9 nM (EC50). Also, in the data set “MTT assay, cytotoxicity”, the CC50 at 24 h is greater than 10000 nM. At PPARγ, the “EC50 PPARγ” value is listed as “ia”. In addition, the “EC50 PPARα” value on PPARα is recorded as “ia”.
On PPARδ, `Cc1cc(SC(Cc2cc(F)c(F)c(F)c2)c2sc(-c3ccc(C(F)(F)F)c(F)c3)nc2C)ccc1OCC(=O)O` (centres unmarked) [Example 92, 2-[4-[1-[2-[3-fluoro-4-(trifluoromethyl)phenyl]-4-methylthiazol-5-yl]-2-(3,4,5-trifluorophenyl)ethylthio]-2-methylphenoxy]acetic acid] yielded an EC50 of 21.6 nM. The CC50 at 24 h in “MTT assay, cytotoxicity” was greater than 30000 nM. Moreover, the “EC50 PPARγ” value on PPARγ is reported as “ia”. Also, the “EC50 PPARα” value at PPARα is reported as “ia”.
`Cc1cc(SC(Cc2c(F)cccc2C(F)(F)F)c2sc(-c3ccc(C(F)(F)F)c(F)c3)nc2C)ccc1OCC(=O)O` (centres unmarked) [Example 93, 2-[4-[1-[2-[3-fluoro-4-(trifluoromethyl)phenyl]-4-methylthiazol-5-yl]-2-(2-fluoro-6-(trifluoromethyl)phenyl)ethylthio]-2-methylphenoxy]acetic acid] yielded an EC50 on PPARδ of 2.6 nM. In addition, the CC50 at 24 h in the data set “MTT assay, cytotoxicity” is greater than 10000 nM. The “EC50 PPARγ” value at PPARγ is given as “ia”. The “EC50 PPARα” value on PPARα is “ia”.
For `Cc1cc(SC(Cc2c(F)cccc2F)c2sc(-c3ccc(C(F)(F)F)c(F)c3)nc2C)ccc1OCC(=O)O` (centres unmarked) [Example 94, 2-[4-[1-[2-[3-fluoro-4-(trifluoromethyl)phenyl]-4-methylthiazol-5-yl]-2-(2,6-difluorophenyl)ethylthio]-2-methylphenoxy]acetic acid], a half-maximal effect at PPARδ (EC50) was put at 0.9 nM. The CC50 at 24 h in “MTT assay, cytotoxicity” is greater than 10000 nM. In addition, the “EC50 PPARγ” value on PPARγ is reported as “ia”. Moreover, the “EC50 PPARα” value at PPARα was “ia”.
Compound `Cc1cc(SC(Cc2c(Cl)cccc2Cl)c2sc(-c3ccc(C(F)(F)F)c(F)c3)nc2C)ccc1OCC(=O)O` (centres unmarked) [Example 95, 2-[4-[2-(2,6-dichlorophenyl)-1-[2-[3-fluoro-4-(trifluoromethyl)phenyl]-4-methylthiazol-5-yl]ethylthio]-2-methylphenoxy]acetic acid] registered an EC50 at PPARδ of 2.3 nM. Moreover, the CC50 at 24 h in “MTT assay, cytotoxicity” is greater than 10000 nM. Also, the “EC50 PPARγ” value on PPARγ is “ia”. Further, the “EC50 PPARα” value at PPARα is reported as “ia”.
